In one test the target is human JAK2 (Homo sapiens (Human), UniProt O60674). The note with it: read-out: JAK2 IC50.
The next test concerns the target human FAK (Homo sapiens (Human), UniProt Q05397). The note with it: read-out: FAK IC50.

One may read the IC50 as the point on the concentration scale where inhibition reaches its midpoint.

Sequence of human JAK2 (O60674 815-1132): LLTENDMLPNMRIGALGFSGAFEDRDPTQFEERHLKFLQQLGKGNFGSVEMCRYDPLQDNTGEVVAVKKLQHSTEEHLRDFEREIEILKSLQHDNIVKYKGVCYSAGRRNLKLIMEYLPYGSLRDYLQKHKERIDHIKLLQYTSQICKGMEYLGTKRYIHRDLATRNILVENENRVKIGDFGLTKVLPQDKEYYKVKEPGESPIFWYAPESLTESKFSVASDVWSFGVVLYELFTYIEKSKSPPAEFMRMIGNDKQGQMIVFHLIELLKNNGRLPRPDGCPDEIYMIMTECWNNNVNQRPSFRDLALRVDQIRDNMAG
Sequence of human FAK (Q05397 whole entry): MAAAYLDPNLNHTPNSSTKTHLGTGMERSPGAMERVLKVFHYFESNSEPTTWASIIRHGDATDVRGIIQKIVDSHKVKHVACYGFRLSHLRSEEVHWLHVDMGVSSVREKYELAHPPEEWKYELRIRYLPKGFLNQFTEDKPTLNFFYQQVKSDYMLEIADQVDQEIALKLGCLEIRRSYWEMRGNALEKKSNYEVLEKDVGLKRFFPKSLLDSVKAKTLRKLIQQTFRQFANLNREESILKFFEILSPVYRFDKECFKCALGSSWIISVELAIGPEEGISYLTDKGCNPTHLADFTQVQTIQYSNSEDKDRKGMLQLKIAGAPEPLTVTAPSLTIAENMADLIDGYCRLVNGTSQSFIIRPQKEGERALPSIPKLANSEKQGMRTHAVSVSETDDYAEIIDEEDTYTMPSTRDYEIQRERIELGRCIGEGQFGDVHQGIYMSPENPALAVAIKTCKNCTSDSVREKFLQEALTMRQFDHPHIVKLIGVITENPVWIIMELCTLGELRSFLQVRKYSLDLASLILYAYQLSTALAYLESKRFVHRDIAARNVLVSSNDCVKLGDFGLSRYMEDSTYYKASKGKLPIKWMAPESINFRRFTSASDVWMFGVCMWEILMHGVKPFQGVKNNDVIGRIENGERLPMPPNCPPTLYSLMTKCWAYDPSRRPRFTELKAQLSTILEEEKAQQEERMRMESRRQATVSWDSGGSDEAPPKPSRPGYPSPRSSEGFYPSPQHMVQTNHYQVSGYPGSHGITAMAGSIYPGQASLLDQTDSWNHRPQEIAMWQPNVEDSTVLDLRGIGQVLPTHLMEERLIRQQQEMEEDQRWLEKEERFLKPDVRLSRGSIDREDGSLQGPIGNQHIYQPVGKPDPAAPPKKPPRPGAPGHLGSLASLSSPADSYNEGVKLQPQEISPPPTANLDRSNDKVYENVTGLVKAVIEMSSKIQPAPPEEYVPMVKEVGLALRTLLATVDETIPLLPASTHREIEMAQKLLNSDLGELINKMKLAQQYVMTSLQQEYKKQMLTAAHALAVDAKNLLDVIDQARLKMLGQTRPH

Regarding `COc1ncc(C(F)(F)F)cc1-c1cccn2nc(Nc3ccc(C4CCNCC4)cc3)nc12` [Example 278, [8-(2-Methoxy-5-trifluoromethyl-pyridin-3-yl)-[1,2,4]triazolo[1,5-a]pyridine-2-yl]-(4-piperidine-4-yl-phenyl)-amine], the IC50 at human JAK2 was found to be 0.133 µM; at human FAK, 10 µM.

Regarding `COc1ncc(C(F)(F)F)cc1-c1cccn2nc(Nc3ccc(C4CCN(CC(=O)N(C)C)CC4)cc3)nc12` [Example 279, 2-(4-{4-[8-(2-Methoxy-5-trifluoromethyl-pyridin-3-yl)-[1,2,4]triazolo[1,5-a]pyridin-2-ylamino]-phenyl}-piperidin-1-yl)-N,N-dimethyl-acetamide], the values for the concentration for half-maximal inhibition (IC50) at human JAK2 and on human FAK were 0.0746 µM and 10 µM, respectively.

Turning to `Fc1ccc(-n2cc(-c3cccn4nc(Nc5ccc(C6CCNCC6)cc5)nc34)cn2)cc1` [Example 282], the 50% inhibitory concentration (IC50) amounted to 0.00212 µM at human JAK2 and 0.999 µM at human FAK.

Take `COc1cnc(-c2cccn3nc(Nc4ccc(C5CCNCC5)cc4)nc23)cn1` [Example 285]: the IC50 at human JAK2 is 0.0737 µM; at human FAK it was 2.47 µM.

Regarding `COc1cnc(-c2cccn3nc(Nc4ccc(C5CCN(CC(=O)N(C)C)CC5)cc4)nc23)cn1` [Example 286, 2-(4-{4-[8-(5-Methoxy-pyrazin-2-yl)-[1,2,4]triazolo[1,5-a]pyridine-2-ylamino]-phenyl}-piperidin-1-yl)-N,N-dimethyl-acetamide], the figures for the IC50 at human JAK2 and at human FAK were 0.134 µM and 3 µM, respectively.

Consider `CN1CCN(c2cccc(Nc3nc4c(-c5cnn(-c6ccc(F)cc6)c5)cccn4n3)c2)CC1` [Example 288, {8-[1-(4-Fluoro-phenyl)-1H-pyrazol-4-yl]-[1,2,4]triazolo[1,5-a]pyridine-2-yl}-[3-(4-methyl-piperazin-1-yl)-phenyl]-amine], for which the 50% inhibitory concentration (IC50) turned out to be 0.00564 µM on human JAK2 and 3 µM on human FAK.

With `Cc1ccc(-n2cc(-c3cccn4nc(Nc5ccc(C6CCNCC6)cc5)nc34)cn2)cc1` [Example 289, (4-Piperidin-4-yl-phenyl)-[8-(1-p-tolyl-1H-pyrazol-4-yl)-[1,2,4]triazolo[1,5-a]pyridine-2-yl]-amine], the IC50 at human JAK2 was 0.00404 µM; at human FAK it was 2.42 µM.

For `CC(C)COc1cccc(-c2cccn3nc(Nc4ccc5c(c4)CCNCC5)nc23)c1` [Example 294, [8-(3-Isobutoxy-phenyl]-[1,2,4]triazolo[1,5a]pyridine-2-yl]-(2,3,4,5-tetrahydro-benzo[d]azepin-7-yl)-amine], the IC50 on human JAK2 stood at 0.0326 µM; at human FAK it was 3 µM.

As to `Cc1ccc(-c2cccn3nc(Nc4ccc5c(c4)CCNCC5)nc23)c(OCC(C)C)c1` [Example 296, [8-(2-Isobutoxy-4-methyl-phenyl]-[1,2,4]triazolo[1,5a]pyridine-2-yl]-(2,3,4,5-tetrahydro-benzo[d]azepin-7-yl)-amine], the half-maximal inhibitory concentration (IC50) on human JAK2 turned out to be 2.8 µM; at human FAK it was 3 µM.

In the case of `Cn1ncc2c(-c3cccn4nc(Nc5ccc6c(c5)CCNCC6)nc34)cccc21` [Example 298, [8-(1-Methyl-1H-indazol-4-yl)-[1,2,4]triazolo[1,5a]pyridine-2-yl]-(2,3,4,5-tetrahydro-benzo[d]azepin-7-yl)-amine], the half-inhibitory concentration (IC50) on human JAK2 worked out at 0.0165 µM; on human FAK, 1.03 µM.

Regarding `c1ccc(-c2cccn3nc(Nc4ccc5c(c4)CCNCC5)nc23)c(OCC2CC2)c1` [Example 301, [8-(2-Cyclopropylmethoxy-phenyl]-[1,2,4]triazolo[1,5a]pyridine-2-yl]-(2,3,4,5-tetrahydro-benzo[d]azepin-7-yl)-amine], the IC50 at human JAK2 stood at 0.112 µM; on human FAK it was 2.79 µM.

On to `Cc1ccc(OCC(C)C)c(-c2cccn3nc(Nc4ccc5c(c4)CCNCC5)nc23)c1` [Example 305, [8-(2-Isobutoxy-5-methyl-phenyl]-[1,2,4]triazolo[1,5a]pyridine-2-yl]-(2,3,4,5-tetrahydro-benzo[d]azepin-7-yl)-amine], for which the IC50 came to 3.08 µM on human JAK2 and 10 µM on human FAK.

For `CCCOc1ccc(Cl)cc1-c1cccn2nc(Nc3ccc4c(c3)CCNCC4)nc12` [Example 307, [8-(5-Chloro-2-propoxy-phenyl]-[1,2,4]triazolo[1,5a]pyridine-2-yl]-(2,3,4,5-tetrahydro-benzo[d]azepin-7-yl)-amine], the IC50 on human JAK2 came to 0.828 µM; on human FAK, 1.05 µM.

`CCCOc1ccc(Cl)cc1-c1cccn2nc(Nc3ccc4c(c3)CCN(CC(=O)N(C)C)CC4)nc12` [Example 308, 2-{7-[8-(5-Chloro-2-propoxy-phenyl]-[1,2,4]triazolo[1,5a]pyridine-2-ylamino]1,2,4,5-tetrahydro-benzo[d]azepin-3-yl)-N,N-dimethyl-acetamide]: the IC50 at human JAK2 was determined as 0.365 µM; on human FAK, 0.946 µM.

With `CCOc1ccc(Cl)cc1-c1cccn2nc(Nc3ccc4c(c3)CCNCC4)nc12` [Example 310, [8-(5-Chloro-2-ethoxy-phenyl]-[1,2,4]triazolo[1,5a]pyridine-2-yl]-(2,3,4,5-tetrahydro-benzo[d]azepin-7-yl)-amine], the IC50 came to 0.0334 µM on human JAK2 and 1.23 µM on human FAK.

Take `COc1ccccc1-c1cccn2nc(Nc3ccc4c(c3)CCN(CC(=O)N(C)C)CC4)nc12` [Example 313, 2-{7-[8-(2-Methoxy-phenyl)-[1,2,4]triazolo[1,5-a]pyridine-2-ylamino]-1,2,4,5-tetrahydro-3-benzazepin-3-yl}-N,N-dimethyl-acetamide]: the half-inhibitory concentration (IC50) at human JAK2 was found to be 0.0392 µM; at human FAK, 10 µM.

Consider `COc1ccccc1-c1cccn2nc(Nc3ccc4c(c3)CCN(CCS(C)(=O)=O)CC4)nc12` [Example 314, [3-(2-Methanesulfonyl-ethyl)-2,3,4,5-tetrahydro-1H-3-benzazepin-7-yl]-[8-(2-methoxy-phenyl)-[1,2,4]triazolo[1,5-a]pyridine-2-yl]-amine], for which the half-maximal inhibitory concentration (IC50) stood at 0.0178 µM on human JAK2 and 10 µM on human FAK.

For `COc1ccc(C(F)(F)F)cc1-c1cccn2nc(Nc3ccc4c(c3)CCN(CC(=O)N(C)C)CC4)nc12` [Example 317, 2-{7-[8-(2-Methoxy-5-trifluoromethyl-phenyl)-[1,2,4]triazolo[1,5-a]pyridin-2-ylamino]-1,2,4,5-tetrahydro-3-benzazepin-3-yl}-N,N-dimethyl-acetamide], the half-maximal inhibitory concentration (IC50) at human JAK2 is 0.0545 µM; at human FAK, 2 µM.

Consider `CCOc1ccc(C(F)(F)F)cc1-c1cccn2nc(Nc3ccc4c(c3)CCNCC4)nc12` [Example 319], for which the half-maximal inhibitory concentration (IC50) at human JAK2 is 0.137 µM; on human FAK it was 1.31 µM.

On to `CCOc1ccc(C(F)(F)F)cc1-c1cccn2nc(Nc3ccc4c(c3)CCN(CCS(C)(=O)=O)CC4)nc12` [Example 320, [8-(2-Ethoxy-5-trifluoromethyl-phenyl)-[1,2,4]triazolo[1,5-a]pyridin-2-yl]-[3-(2-methanesulfonyl-ethyl)-2,3,4,5-tetrahydro-1H-3-benzazepin-7yl)-amine], for which the figures for the half-inhibitory concentration (IC50) on human JAK2 and on human FAK were 0.16 µM and 3 µM, respectively.

Turning to `CCOc1ccc(C(F)(F)F)cc1-c1cccn2nc(Nc3ccc4c(c3)CCN(CC(=O)N(C)C)CC4)nc12` [Example 321, 2-{7-[8-(2-Ethoxy-5-trifluoromethyl-phenyl)-[1,2,4]triazolo[1,5-a]pyridin-2-ylamino]-1,2,4,5-tetrahydro-3-benzazepin-3-yl}-N,N-dimethyl-acetamide], the IC50 at human JAK2 turned out to be 0.223 µM; at human FAK, 1.78 µM.
